Assay results from patent publication US11878047B2, “ATF5 peptide variants and uses thereof” (Sapience Therapeutics, Inc., priority 2018, dated 2024).
Read-outs that look alike come from different tables or passages of the source. Ends that are not written are not given here.

Assays:
Assay type in all cases: cell-based, human
HL60 cells = assay: HL60 cell viability (cytotoxicity) assay, Annexin V FITC/PI flow cytometry
Protocol: HL60 PML suspension cells were set at a density of 3.5×10^3 cells/well in 150 μL of RPMI+1.5% fetal bovine serum (FBS) in a 96 well dish. ST-3, reconstituted at a concentration of 10 mg/mL in 20 mM His, pH 7.5, was added to each well at a volume of 50 μL to a final concentration range of 0-80 μM. Cells were incubated with ST-3 for 48 hours at 37° C. Cell viability was quantified by flow cytometry using an Abcam Annexin V FITC apoptosis detection kit. Briefly, cells were washed with PBS and resuspended in 1× assay buffer containing Annexin V FITC and propidium iodide (PI). Annexin V detects apoptotic cells, and PI stains dead cells. After staining, apoptotic cells show green fluorescence, dead cells show red and green fluorescence, and live cells show little or no fluorescence. Cells were selected for analysis based on forward scatter (FSC) vs. side scatter (SSC), and analyzed by BD Accuri C6 Plus flow cytometer to detect Annexin V-FITC binding (Ex=488 nm; Em=530 nm) using FITC signal detector and PI staining by the phycoerythrin emission signal detector. Percentage of Annexin V^low and PI^low were quantified and presented as % Viability.
Lyophilized ST-3 or ST-3 with glycine (ST-4) or alanine (ST-5) substituted for cysteine at amino acid position 21 was freshly reconstituted in histidine buffer to a stock solution of 5 mg/mL and added to cells at a final concentration range of 0-40 μM. Cells were incubated with ATF5 peptide for 48 hours prior to quantification of cell viability.
(§1) ST-13 was further examined in various human cancer cell lines, as was a second retro-inverso variant, ST-14. Suspension cells (HL60, AML14, or SET2) were set at a density of 3.5×10^3 cells/well in 150 μL of RPMI+1.5% fetal bovine serum (FBS) in a tissue culture-treated 96 well dish. ATF5 peptide, reconstituted at a concentration of 10 mg/mL in 20 mM His, pH 7.5, was added to each well at a volume of 50 μL to a final concentration range of 0-80 μM. Cells were incubated with peptide for 48 hours at 37° C. Cell viability was quantified by flow cytometry using an Abcam Annexin V FITC apoptosis detection kit. Briefly, cells were washed with PBS and resuspended in 1× assay buffer containing Annexin V FITC and propidium iodide (PI). Cells were analyzed by BD Accuri C6 Plus flow cytometer to detect Annexin V-FITC binding (Ex=488 nm; Em=530 nm) using FITC signal detector, and to detect PI staining using the phycoerythrin emission signal detector. Percentage of Annexin V^low and PI^low were quantified and presented as % Viability. EC50 values were calculated using GraphPad Prism v.7 XML.

[1] = system: AML14 acute myeloid leukemia cells
Protocol: as §1

[2] = system: SET2 acute myeloid leukemia cells
Protocol: as §1

MCF7 breast cancer cells = system: MCF7 breast cancer cells
Protocol: Additionally, adherent A375, MCF7, U251, DU145, U87, and A549 cells were set at a density of 3.5×10^3 cells/well in 200 μL of media on day −1. On day 0, media was removed and replenished with 150 μL of fresh media, and cells were treated with ATF5 peptide as described. Following a 48-hour incubation at 37° C., floating cells were collected, adherent cells were washed with Dulbecco's Phosphate Buffered Saline (DPBS), dissociated from the dish with 50 μL 2.5% trypsin at RT, and combined with floating cells. Cell viability was determined as described above for suspension cells or by MTT assay (MCF7 cells). Alternatively, cells were gently removed from the cell culture plate following trypsinization with 2.5% trypsin, and cell viability was quantified by flow cytometry using an Abcam Annexin V FITC apoptosis detection kit, as described above.

[3] = system: neoplastic cells / wide range of tumor cell types; assay: Cytotoxic activity across tumor cell types
Protocol: as §1, with “Briefly, cells were washed with PBS and resuspended in 1× assay buffer containing Annexin V FITC and propidium iodide (PI).” left out, “XML. […] Cell viability was determined as described above for suspension cells or by MTT assay (MCF7 cells). Alternatively, cells were gently removed from the cell culture plate following trypsinization with 2.5% trypsin, and cell viability was quantified by flow cytometry using an Abcam Annexin V FITC apoptosis detection kit, as described above.” for “XML.”

[4] = HL60 cell viability assay, 48 hours

Compound: CC[C@@H](C)[C@@H](NC(=O)[C@@H](CCCCN)NC(=O)[C@H](NC(=O)[C@@H](Cc1c[nH]c2ccccc12)NC(=O)[C@@H](Cc1ccccc1)NC(=O)[C@@H](CCC(N)=O)NC(=O)[C@@H](CC(N)=O)NC(=O)[C@@H](CCCNC(=N)N)NC(=O)[C@@H](CCCNC(=N)N)NC(=O)[C@@H](CCSC)NC(=O)[C@@H](CCCCN)NC(=O)[C@@H](Cc1c[nH]c2ccccc12)NC(=O)[C@@H](CCCCN)NC(=O)[C@@H](CCCCN)NC(=O)[C@@H](CC(C)C)NC(=O)[C@@H](CCC(=O)O)NC(=O)CNC(=O)[C@@H](CCCNC(=N)N)NC(=O)[C@@H](C)NC(=O)[C@@H](CCC(N)=O)NC(=O)CNC(=O)[C@@H](CC(C)C)NC(=O)[C@@H](CCCNC(=N)N)NC(=O)[C@@H](C)NC(=O)[C@@H](CCC(=O)O)NC(=O)[C@@H](CC(C)C)NC(=O)[C@@H](CCCNC(=N)N)NC(=O)[C@@H](CCC(=O)O)NC(=O)[C@@H](CC(C)C)NC(=O)[C@@H](CCC(=O)O)NC(=O)[C@@H](CCC(=O)O)NC(=O)[C@@H](CCCNC(=N)N)NC(=O)[C@@H](C)NC(=O)[C@@H](CCC(=O)O)NC(=O)[C@@H](C)NC(=O)[C@H](N)C(C)C)[C@H](C)CC)C(=O)N[C@H](CCC(N)=O)C(=O)N[C@H](CCCNC(=N)N)C(=O)O [ST-13]
- cytotoxic activity compared with other peptides (HL60 cells): comparable activity to ST-11, and superior activity to ST-3
- EC50 [1]: < 1 µM
- EC50 [2]: 17.7 µM
- EC50 (MCF7 breast cancer cells): < 1 µM
- cytotoxic activity in tumor / neoplastic cells [3]: significant cytotoxic activity

Compound: RQIKIWFQNRRMKWKKLEGEAQGLEARNRELKERAESV [ST-5]
- cytotoxic activity compared with other peptides (HL60 cells; [4]): attenuated but not ablated

Compound: RQIKIWFQNRRMKWKKLEGECQGLEARNRELKERAEAV [ST-6]
- cytotoxic activity compared with other peptides (HL60 cells; [4]): comparable activity to ST-3

Compound: RQIKIWFQNRRMKWKKLEGECQGLEARNRELKERAESV [ST-3, reference compound]
- cytotoxic activity in tumor / neoplastic cells [3]: induces cell death in neoplastic cells

Compound: RQIKIWFQNRRMKWKKLEGEGQGLEARNRELKERAESV [ST-4]
- cytotoxic activity compared with other peptides (HL60 cells; [4]): attenuated but not ablated

Compound: RQIKIWFQNRRMKWKKLEGRAQGLRAELRELEERAEAV [ST-11]
- cytotoxic activity compared with other peptides (HL60 cells; [4]): improved cytotoxic activity over ST-3

Compound: RQIKIWFQNRRMKWKKLEGRCQGLRAELRELEERAEAV [ST-10]
- cytotoxic activity compared with other peptides (HL60 cells; [4]): comparable to that of ST-9

Compound: RQIKIWFQNRRMKWKKLEGRCQGLRAENRELEERAESV [ST-9]
- cytotoxic activity compared with other peptides (HL60 cells; [4]): significantly increased over that of ST-3
